“And” between values parts separate entries of the source, which are not always exact repeats. Equal values may be shown once. Inconclusive results and toxic doses are left out. Rule for the calls: active = survival T/C of 150% or more; inactive = T/C below 125% in these data.
Tested on: P388 leukemia ip, CD2F1 mice, survival T/C
Test: NCI In Vivo Anticancer Drug Screen. Data for tumor model P388 Leukemia (intraperitoneal) in CD2F1 (CDF1) mice
Details: endpoint: median survival time, higher = longer survival
In short: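 Mice carrying the transplanted tumor received test compound or vehicle. Survival was recorded in each group, and the value is the treated-group measurement divided by that of the vehicle-treated control group.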

[1] = dose: 50.0 mg/kg/injection, schedule: Q01DX009 (ip), vehicle: Klucel (hydroxypropylcellulose) (HPC)
[2] = dose: 100.0 mg/kg/injection, schedule: Q01DX009 (ip), vehicle: Klucel (hydroxypropylcellulose) (HPC)
[3] = dose: 12.5 mg/kg/injection, schedule: Q01DX009 (ip), vehicle: saline
[4] = dose: 25.0 mg/kg/injection, schedule: Q01DX009 (ip), vehicle: saline
[5] = dose: 50.0 mg/kg/injection, schedule: Q01DX009 (ip), vehicle: saline
[6] = dose: 100.0 mg/kg/injection, schedule: Q01DX009 (ip), vehicle: saline
[7] = dose: 50.0 mg/kg/injection, schedule: Q01DX005 (ip), vehicle: saline
[8] = dose: 50.0 mg/kg/injection, schedule: Q01DX009 (ip), vehicle: saline with Tween-80
[9] = dose: 100.0 mg/kg/injection, schedule: Q01DX009 (ip), vehicle: saline with Tween-80
[10] = dose: 200.0 mg/kg/injection, schedule: Q01DX009 (ip), vehicle: saline with Tween-80
[11] = dose: 6.25 mg/kg/injection, schedule: Q01DX009 (ip), vehicle: saline
[12] = dose: 50.0 mg/kg/injection, schedule: Q01DX005 (ip), vehicle: saline with Tween-80
[13] = dose: 100.0 mg/kg/injection, schedule: Q01DX005 (ip), vehicle: saline with Tween-80
[14] = dose: 200.0 mg/kg/injection, schedule: Q01DX005 (ip), vehicle: saline with Tween-80
[15] = dose: 6.25 mg/kg/injection, schedule: Q01DX005 (ip), vehicle: saline with Tween-80
[16] = dose: 12.5 mg/kg/injection, schedule: Q01DX005 (ip), vehicle: saline with Tween-80
[17] = dose: 25.0 mg/kg/injection, schedule: Q01DX005 (ip), vehicle: saline with Tween-80
[18] = dose: 25.0 mg/kg/injection, schedule: Q01DX009 (ip), vehicle: saline with Tween-80
[19] = dose: 200.0 mg/kg/injection, schedule: Q01DX009 (ip), vehicle: saline
[20] = dose: 400.0 mg/kg/injection, schedule: Q01DX009 (ip), vehicle: saline

Measured: T/C

O=C1CCCCCCCCCCCCCCCO1
inactive: dose: 6.25 mg/kg/injection, schedule: Q01DX009 (ip), vehicle: Klucel (hydroxypropylcellulose) (HPC) 103 % of control | dose: 12.5 mg/kg/injection, schedule: Q01DX009 (ip), vehicle: Klucel (hydroxypropylcellulose) (HPC) 98 % of control and 115 % of control | dose: 25.0 mg/kg/injection, schedule: Q01DX009 (ip), vehicle: Klucel (hydroxypropylcellulose) (HPC) 104 % of control and 97 % of control | [1] 100 % of control and 120 % of control and 91 % of control | [2] 109 % of control | dose: 200.0 mg/kg/injection, schedule: Q01DX009 (ip), vehicle: Klucel (hydroxypropylcellulose) (HPC) 111 % of control | dose: 400.0 mg/kg/injection, schedule: Q01DX009 (ip), vehicle: Klucel (hydroxypropylcellulose) (HPC) 109 % of control

CCCCCCCCCCN1CCC(N2CCCCC2)CC1
inactive: [3] 98 % of control | [4] 100 % of control | [5] 99 % of control | [6] 93 % of control

COc1cc2c(c(OC)c1OC)-c1ccc(OC)c(=O)cc1[C@@H](NC(=O)CF)CC2
active: dose: 93.7 micrograms/kg/injection, schedule: Q01DX009 (ip), vehicle: saline 152 % of control | dose: 187.5 micrograms/kg/injection, schedule: Q01DX009 (ip), vehicle: saline 152 % of control | dose: 250.0 micrograms/kg/injection, schedule: Q04DX003 (ip), vehicle: saline 163 % of control | dose: 375.0 micrograms/kg/injection, schedule: Q01DX009 (ip), vehicle: saline 161 % of control | dose: 500.0 micrograms/kg/injection, schedule: Q04DX003 (ip), vehicle: saline 204 % of control
inactive: dose: 23.4 micrograms/kg/injection, schedule: Q01DX009 (ip), vehicle: saline 121 % of control | dose: 2000.0 micrograms/kg/injection, schedule: Q04DX003 (ip), vehicle: saline 122 % of control

O=c1c2ccccc2c2sc3c4ccccc4c(=O)c3c12
inactive: dose: 60.0 mg/kg/injection, schedule: Q01DX005 (ip), vehicle: Klucel (hydroxypropylcellulose) (HPC) 104 % of control | dose: 120.0 mg/kg/injection, schedule: Q01DX005 (ip), vehicle: Klucel (hydroxypropylcellulose) (HPC) 99 % of control | dose: 240.0 mg/kg/injection, schedule: Q01DX005 (ip), vehicle: Klucel (hydroxypropylcellulose) (HPC) 97 % of control

OC1CCC(O)C1 (centres undefined)
inactive: [7] 100 % of control | dose: 100.0 mg/kg/injection, schedule: Q01DX005 (ip), vehicle: saline 105 % of control | dose: 200.0 mg/kg/injection, schedule: Q01DX005 (ip), vehicle: saline 98 % of control

CCCCCCC(=O)/C=C/c1cc(OC)cc(OC)c1
inactive: [8] 96 % of control | [9] 103 % of control | [10] 91 % of control

CC[C@]1(O)CN2CCc3c([nH]c4ccccc34)[C@@](C(=O)OC)(c3cc4c(cc3OC)N(C)[C@H]3[C@@](O)(C(=O)OC)[C@H](OC(C)=O)[C@]5(CC)C=CCN6CC[C@]43[C@@H]65)C[C@H](C2=O)[C@H]1O
inactive: dose: 4.0 mg/kg/injection, schedule: Q01DX001 (ip), vehicle: water 115 % of control | dose: 8.0 mg/kg/injection, schedule: Q01DX001 (ip), vehicle: water 117 % of control | dose: 16.0 mg/kg/injection, schedule: Q01DX001 (ip), vehicle: water 115 % of control and 124 % of control
active: dose: 128.0 mg/kg/injection, schedule: Q01DX001 (ip), vehicle: water 150 % of control

O=C(c1ccncc1)c1cccc(Cl)c1
inactive: [8] 103 % of control | [9] 108 % of control | [10] 104 % of control

Cc1[nH]c2ccc(N(C)C)cc2c(=O)c1CN(C)C
inactive: [1] 105 % of control | [2] 108 % of control

CCN(CC)C(C)C(=O)Nc1c(C)cccc1Cl (centres undefined)
inactive: [3] 100 % of control | [4] 90 % of control | [5] 100 % of control

Oc1c(CN2CCCC2)cc(Nc2nccc(/C=C/c3ccc(Cl)cc3)n2)cc1CN1CCCC1
inactive: [11] 106 % of control | [3] 106 % of control | [4] 110 % of control | [5] 114 % of control

O=C(O)Cc1cc(Cl)ccc1C(=O)O
inactive: [12] 97 % of control | [13] 97 % of control | [14] 97 % of control

CC(=O)Nc1nnc(-c2coc3ccc(C)cc3c2=O)s1
inactive: [15] 99 % of control | [16] 88 % of control and 89 % of control | [17] 86 % of control | [12] 86 % of control

OC(CC1CCCCN1)c1ccccc1 (centres undefined)
inactive: dose: 12.5 mg/kg/injection, schedule: Q01DX005 (ip), vehicle: saline 98 % of control | dose: 12.5 mg/kg/injection, schedule: Q01DX009 (ip), vehicle: saline with Tween-80 107 % of control | dose: 25.0 mg/kg/injection, schedule: Q01DX005 (ip), vehicle: saline 105 % of control | [18] 101 % of control | [7] 115 % of control | [8] 100 % of control and 102 % of control

CC1=CSC2=NCCCCN12
inactive: [11] 91 % of control | [3] 93 % of control | [4] 92 % of control

C[CH2][Sn]1([Cl])[O]CCNCC[O]1
inactive: dose: 25.0 mg/kg/injection, schedule: Q01DX005 (ip), vehicle: Klucel (hydroxypropylcellulose) (HPC) 103 % of control | dose: 50.0 mg/kg/injection, schedule: Q01DX005 (ip), vehicle: Klucel (hydroxypropylcellulose) (HPC) 103 % of control and 113 % of control | dose: 100.0 mg/kg/injection, schedule: Q01DX005 (ip), vehicle: Klucel (hydroxypropylcellulose) (HPC) 116 % of control | dose: 200.0 mg/kg/injection, schedule: Q01DX005 (ip), vehicle: Klucel (hydroxypropylcellulose) (HPC) 122 % of control

N#CCCCCCCCCCCC(=O)O
inactive: [6] 93 % of control | [19] 91 % of control | [20] 94 % of control

CCOCCOCCOC(C)OC(C)Cc1ccc2c(c1)OCO2 (centres undefined)
inactive: [12] 106 % of control | [13] 95 % of control | [14] 112 % of control

C[N+](C)(C)CCNP(=O)(Oc1ccccc1)c1ccccc1 (centres undefined)
inactive: [12] 103 % of control | [13] 94 % of control

CCCCNC(=S)NNC(=O)CNC(c1ccc(OC)cc1)C(CC)c1ccc(OC)cc1 (centres undefined)
inactive: dose: 100.0 mg/kg/injection, schedule: Q01DX001 (ip), vehicle: saline with Tween-80 88 % of control | dose: 200.0 mg/kg/injection, schedule: Q01DX001 (ip), vehicle: saline with Tween-80 101 % of control

CC(C)(C)C(=O)Oc1cc2c(cc1OC(=O)C(C)(C)C)C(c1ccccc1)CNCC2 (centres undefined)
inactive: [18] 96 % of control | [8] 98 % of control

CCOP(=O)(OCC)C(C)OC (centres undefined)
inactive: [5] 100 % of control | [6] 100 % of control | [19] 106 % of control | [20] 100 % of control

CCCCCCCCCOCC(=O)OC
inactive: [8] 105 % of control | [9] 106 % of control | [10] 101 % of control

O=S(=O)(O)O.[N-]=C(N)/N=C(\[NH-])N.[N-]=C(N)/N=C(\[NH-])N.[N-]=C(N)NC(=[N-])N.[Rh+3]
inactive: [3] 100 % of control | [4] 103 % of control | [5] 107 % of control

O=C1SC/C(=N\N=c2/scc(-c3ccc(Br)cc3)n2-c2ccccc2)N1Cc1ccccc1
inactive: dose: 100.0 mg/kg/injection, schedule: Q04DX002 (ip), vehicle: Klucel (hydroxypropylcellulose) (HPC) 92 % of control | dose: 200.0 mg/kg/injection, schedule: Q04DX002 (ip), vehicle: Klucel (hydroxypropylcellulose) (HPC) 91 % of control | dose: 400.0 mg/kg/injection, schedule: Q04DX002 (ip), vehicle: Klucel (hydroxypropylcellulose) (HPC) 89 % of control

COC(=O)/C(C#N)=C1\C(=O)OCC1(C)C
inactive: dose: 100.0 mg/kg/injection, schedule: Q04DX003 (ip), vehicle: saline 104 % of control | dose: 200.0 mg/kg/injection, schedule: Q04DX003 (ip), vehicle: saline 94 % of control | dose: 400.0 mg/kg/injection, schedule: Q04DX003 (ip), vehicle: saline 98 % of control

O=c1oc2ccccc2n1Cc1ccc(Cl)cc1
inactive: [15] 102 % of control | [16] 93 % of control | [17] 99 % of control

Source: PubChem BioAssay AID330 (DTP/NCI, 2004)
